Measured values taken from US10745377B2, “Piperidine or piperazine linked imidazole and triazole derivatives and methods of use” (MERCK SHARP & DOHME CORP., priority 2013, dated 2020).

Assays:
Assay type in all cases: biochemical
[1] = biological target: T1, CYP2D6 (Homo sapiens, UniProt P10635); assay: Cocktail assay for CYPs in human liver microsomes: CYP2D6 (dextromethorphan O-demethylation); details: human liver microsomes 0.1 mg/mL, 5 μM dextromethorphan, 10 min at 37° C., 6 concentrations up to 10 μM; read-out: IC50 (nM) CYP2D6
T1 construct: 0.1 mg/mL protein human liver microsomes (BD Gentest); tissue BD Gentest; host or cells: human liver microsomes

[2] = biological target: T2, CYP1A2 (Homo sapiens, UniProt P05177); assay: Cocktail assay for CYPs in human liver microsomes: CYP1A2 (phenacetin O-deethylation); details: human liver microsomes 0.1 mg/mL, 10 μM phenacetin, 10 min at 37° C., 6 concentrations up to 10 μM; read-out: IC50 (nM) CYP1A2
T2 construct: 0.1 mg/mL protein human liver microsomes (BD Gentest); tissue BD Gentest; host or cells: human liver microsomes
T2 sequence (P05177 1-516): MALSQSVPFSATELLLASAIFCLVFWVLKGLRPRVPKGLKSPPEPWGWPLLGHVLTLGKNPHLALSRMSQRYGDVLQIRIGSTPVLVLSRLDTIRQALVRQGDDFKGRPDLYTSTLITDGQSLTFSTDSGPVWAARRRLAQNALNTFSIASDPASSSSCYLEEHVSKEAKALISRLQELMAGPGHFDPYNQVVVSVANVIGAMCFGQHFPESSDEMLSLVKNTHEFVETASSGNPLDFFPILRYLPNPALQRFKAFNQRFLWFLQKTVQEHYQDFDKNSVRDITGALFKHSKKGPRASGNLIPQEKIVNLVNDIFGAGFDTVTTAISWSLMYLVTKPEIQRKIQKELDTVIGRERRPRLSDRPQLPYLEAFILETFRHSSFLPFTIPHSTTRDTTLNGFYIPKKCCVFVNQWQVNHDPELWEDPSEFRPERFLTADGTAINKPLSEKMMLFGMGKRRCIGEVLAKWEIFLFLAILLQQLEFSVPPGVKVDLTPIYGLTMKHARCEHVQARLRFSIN

[3] = biological target: T3, CYP3A4 (Homo sapiens, UniProt P08684); assay: Cocktail assay for CYPs in human liver microsomes: CYP3A4 (midazolam 1′-hydroxylation); details: human liver microsomes 0.1 mg/mL, 2 μM midazolam, 10 min at 37° C., 6 concentrations up to 10 μM; read-out: IC50 (nM) CYP3A4
T3 construct: 0.1 mg/mL protein human liver microsomes (BD Gentest); tissue BD Gentest; host or cells: human liver microsomes

[4] = biological target: T4, CYP2C9 (Homo sapiens, UniProt P11712); assay: Cocktail assay for CYPs in human liver microsomes: CYP2C9 (diclofenac 4′-hydroxylation); details: human liver microsomes 0.1 mg/mL, 5 μM diclofenac, 10 min at 37° C., 6 concentrations up to 10 μM; read-out: IC50 (nM) CYP2C9
T4 construct: 0.1 mg/mL protein human liver microsomes (BD Gentest); tissue BD Gentest; host or cells: human liver microsomes

[5] = biological target: T5, CYP2C19 (Homo sapiens, UniProt P33261); assay: Cocktail assay for CYPs in human liver microsomes: CYP2C19 (mephenytoin 4′-hydroxylation); details: human liver microsomes 0.1 mg/mL, 30 μM mephenytoin, 10 min at 37° C., 6 concentrations up to 10 μM; read-out: IC50 (nM) CYP2C19
T5 construct: 0.1 mg/mL protein human liver microsomes (BD Gentest); tissue BD Gentest; host or cells: human liver microsomes
T5 sequence (P33261 whole entry): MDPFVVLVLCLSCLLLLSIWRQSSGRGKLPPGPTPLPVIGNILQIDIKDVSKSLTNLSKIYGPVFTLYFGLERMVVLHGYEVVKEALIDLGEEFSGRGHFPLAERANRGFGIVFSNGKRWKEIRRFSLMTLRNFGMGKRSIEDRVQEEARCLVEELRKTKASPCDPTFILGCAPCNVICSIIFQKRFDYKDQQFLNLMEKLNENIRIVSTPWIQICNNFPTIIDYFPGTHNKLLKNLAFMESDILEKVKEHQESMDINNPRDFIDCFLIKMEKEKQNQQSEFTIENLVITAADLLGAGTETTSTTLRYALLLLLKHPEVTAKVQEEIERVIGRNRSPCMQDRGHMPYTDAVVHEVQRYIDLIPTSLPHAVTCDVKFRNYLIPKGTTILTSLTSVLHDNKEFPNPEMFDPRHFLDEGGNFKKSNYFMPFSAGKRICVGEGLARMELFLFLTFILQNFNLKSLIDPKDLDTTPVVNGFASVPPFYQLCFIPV

T4 sequence (P11712 whole entry): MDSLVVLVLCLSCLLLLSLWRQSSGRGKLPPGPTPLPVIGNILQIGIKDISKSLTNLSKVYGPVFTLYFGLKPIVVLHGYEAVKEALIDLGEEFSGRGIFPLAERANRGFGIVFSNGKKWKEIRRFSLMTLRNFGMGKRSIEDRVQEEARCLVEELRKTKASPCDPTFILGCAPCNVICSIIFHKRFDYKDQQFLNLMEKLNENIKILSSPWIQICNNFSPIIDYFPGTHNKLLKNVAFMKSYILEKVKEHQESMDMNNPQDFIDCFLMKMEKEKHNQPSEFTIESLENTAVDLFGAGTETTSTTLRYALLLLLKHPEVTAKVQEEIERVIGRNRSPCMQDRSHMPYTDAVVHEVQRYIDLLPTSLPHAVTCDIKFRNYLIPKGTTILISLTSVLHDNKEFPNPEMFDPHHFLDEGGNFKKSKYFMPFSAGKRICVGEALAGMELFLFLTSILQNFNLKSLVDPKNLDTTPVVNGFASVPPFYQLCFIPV
T1 sequence (P10635 whole entry): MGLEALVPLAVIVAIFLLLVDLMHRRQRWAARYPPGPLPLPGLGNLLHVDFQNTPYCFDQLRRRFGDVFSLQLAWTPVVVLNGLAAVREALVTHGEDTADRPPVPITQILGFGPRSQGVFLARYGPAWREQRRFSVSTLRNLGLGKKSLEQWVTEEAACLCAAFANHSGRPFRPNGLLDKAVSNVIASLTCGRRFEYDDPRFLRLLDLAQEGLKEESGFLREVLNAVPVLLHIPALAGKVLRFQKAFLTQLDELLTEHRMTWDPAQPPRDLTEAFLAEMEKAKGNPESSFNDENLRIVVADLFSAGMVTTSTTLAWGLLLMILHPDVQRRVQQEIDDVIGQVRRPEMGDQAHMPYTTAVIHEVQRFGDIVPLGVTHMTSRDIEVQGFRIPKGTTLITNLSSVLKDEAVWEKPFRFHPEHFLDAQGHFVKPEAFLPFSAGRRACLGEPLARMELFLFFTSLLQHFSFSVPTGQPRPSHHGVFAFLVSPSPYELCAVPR
T3 sequence (P08684 whole entry): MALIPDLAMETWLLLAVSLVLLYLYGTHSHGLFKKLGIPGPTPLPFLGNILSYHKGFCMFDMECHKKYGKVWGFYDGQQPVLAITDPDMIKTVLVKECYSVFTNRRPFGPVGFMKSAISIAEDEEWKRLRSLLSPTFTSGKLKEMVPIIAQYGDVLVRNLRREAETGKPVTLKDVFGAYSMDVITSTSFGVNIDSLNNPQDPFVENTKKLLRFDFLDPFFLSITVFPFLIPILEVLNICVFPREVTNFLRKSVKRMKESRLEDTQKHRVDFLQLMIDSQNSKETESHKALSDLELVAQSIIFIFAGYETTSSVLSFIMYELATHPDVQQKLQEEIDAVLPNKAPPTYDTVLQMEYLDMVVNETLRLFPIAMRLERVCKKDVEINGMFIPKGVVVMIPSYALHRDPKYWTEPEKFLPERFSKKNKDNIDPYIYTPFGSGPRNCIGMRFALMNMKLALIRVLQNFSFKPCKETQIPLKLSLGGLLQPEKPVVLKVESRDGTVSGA

| Structure (SMILES) | IC50 [1] | IC50 [2] | IC50 [3] | IC50 [4] | IC50 [5] |
| --- | --- | --- | --- | --- | --- |
| C[C@H](c1ccc(C#N)cc1)n1cncc1CN1CCN(c2nc3ccc(F)c(F)c3o2)CC1 [Compound 31, (R)-4-(1-(5-((4-(6,7-difluorobenzo[d]oxazol-2-yl)piperazin-1-yl)methyl)-1H-imidazol-1-yl)ethyl) benzonitrile] | 2870 nM | > 10000 nM | 7 nM | 2320 nM | 3740 nM |
| CC(C1CCOCC1)n1cncc1CN1CCN(c2nc3ccccc3o2)CC1 (centres unmarked) [Compound 32, 2-(4-((1-(1-(tetra-hydro-2H-pyran-4-yl)ethyl)-1H-imidazol-5-yl)methyl)piperazin-1-yl)benzo[d] oxazole] | > 10000 nM | > 10000 nM | 24 nM | > 10000 nM | > 10000 nM |
| c1ccc(CCn2cncc2CN2CCN(c3nc4ccccc4o3)CC2)nc1 [Compound 33, 2-(4-((1-(2-(pyridin-2-yl)ethyl)-1H-imidazol-5-yl)methyl)piperazin-1-yl)benzo[d] oxazole] | 2090 nM | > 10000 nM | 35 nM | 6520 nM | ≥ 10000 nM |
| CC(C1CCOCC1)n1cncc1CN1CCN(c2nc3ccc(F)c(F)c3o2)CC1 (centres unmarked) [Compound 35, 6,7-difluoro-2-(4-((1-(1-(tetrahydro-2H-pyran-4-yl)ethyl)-1H-imidazol-5-yl)methyl)piperazin-1-yl) benzo[d]oxazole] | > 10000 nM | > 10000 nM | 4 nM | > 10000 nM | > 10000 nM |
| CC(Cn1cncc1CN1CCN(c2nc3ccccc3o2)CC1)C(F)(F)F (centres unmarked) [Compound 36, 2-(4-((1-(3,3,3-trifluoro-2-methylpropyl)-1H-imidazol-5-yl)methyl)piperazin-1-yl)benzo[d]oxazole] | 1720 nM | > 10000 nM | 45 nM | 6980 nM | 4260 nM |
| Fc1ccc(CCn2cncc2CN2CCN(c3nc4ccccc4o3)CC2)cc1 [Compound 37, 2-(4-((1-(4-fluorophenethyl)-1H-imidazol-5-yl)methyl)piperazin-1-yl)benzo[d]oxazole] | 1410 nM | > 10000 nM | 8 nM | 4360 nM | 5380 nM |
| COc1ccc2nc(N3CCN(Cc4cncn4[C@H](C)c4ccc(C#N)cc4)CC3)sc2c1 [Compound 38, (R)-4-(1-(5-((4-(6-methoxybenzo[d]thiazol-2-yl)piperazin-1-yl)methyl)-1H-imidazol-1-yl)ethyl)benzonitrile] | 3690 nM | > 10000 nM | 31 nM | 6470 nM | 4720 nM |
| CCS(=O)(=O)c1cnc(N2CCN(Cc3cncn3[C@H](C)Cc3ccc(F)cc3)CC2)s1 [Compound 40, (R)-5-(ethylsulfonyl)-2-(4-((1-(1-(4-fluorophenyl)propan-2-yl)-1H-imidazol-5-yl)methyl)piperazin-1-yl)thiazole] | 5260 nM | > 10000 nM | 27 nM | > 10000 nM | > 10000 nM |
| CCS(=O)(=O)CCc1cnc(N2CCN(Cc3cncn3[C@H](C)Cc3ccc(F)cc3)CC2)s1 [Compound 41, (R)-5-(2-(ethylsulfonyl)ethyl)-2-(4-((1-(1-(4-fluorophenyl)propan-2-yl)-1H-imidazol-5-yl)methyl)piperazin-1-yl)thiazole] | 2380 nM | > 10000 nM | 30 nM | 2700 nM | 2230 nM |
| CCS(=O)(=O)CCc1cnc(N2CCN(Cc3cncn3[C@H](C)c3ccc(Cl)cc3)CC2)s1 [Compound 42, (R)-2-(4-((1-(1-(4-chloro-phenyl)ethyl)-1H-imidazol-5-yl)methyl)piperazin-1-yl)-5-(2-(ethyl-sulfonyl)ethyl)thiazole] | 1660 nM | > 10000 nM | 22 nM | > 10000 nM | 2400 nM |

The remaining lines, values ahead:

| IC50 [1] | IC50 [2] | IC50 [3] | IC50 [4] | IC50 [5] | Structure (SMILES) |
| --- | --- | --- | --- | --- | --- |
| 1110 nM | > 10000 nM | 10 nM | 3870 nM | 3570 nM | C[C@H](c1ccc(C#N)cc1)n1cncc1CN1CCN(c2nc3cccc(F)c3o2)CC1 [Compound 28, (R)-4-(1-(5-((4-(7-fluorobenzo[d]oxazol-2-yl)piperazin-1-yl)methyl)-1H-imidazol-1-yl)ethyl)benzonitrile] |
| 2770 nM | > 10000 nM | 20 nM | 2490 nM | 4970 nM | Cc1cccc2nc(N3CCN(Cc4cncn4[C@H](C)c4ccc(C#N)cc4)CC3)oc12 [Compound 29, (R)-4-(1-(5-((4-(7-methylbenzo[d]oxazol-2-yl)piperazin-1-yl)methyl)-1H-imidazol-1-yl)ethyl)benzonitrile] |
| 1620 nM | > 10000 nM | 7 nM | 5550 nM | 8400 nM | C[C@H](c1ccc(C#N)cc1)n1cncc1CN1CCN(c2nc3ccc(F)cc3o2)CC1 [Compound 30, (R)-4-(1-(5-((4-(6-fluorobenzo[d]oxazol-2-yl)piperazin-1-yl)methyl)-1H-imidazol-1-yl)ethyl)benzonitrile] |
| 2520 nM | > 10000 nM | 8 nM | ≥ 10000 nM | ≥ 10000 nM | CC(c1ccc(S(C)(=O)=O)cc1)n1cncc1CN1CCN(c2nc3ccccc3o2)CC1 (centres unmarked) [Compound 34, 2-(4-((1-(1-(4-(methylsulfonyl)phenyl)ethyl)-1H-imidazol-5-yl)methyl)piperazin-1-yl)benzo [d]oxazole] |
| 1580 nM | > 10000 nM | 23 nM | > 10000 nM | > 10000 nM | C[C@H](c1ccc(C#N)cc1)n1cncc1CN1CCN(c2nc3ccccc3[nH]2)CC1 [Compound 39, (R)-4-(1-(5-((4-(1H-benzo[d]imidazol-2-yl)piperazin-1-yl)methyl)-1H-imidazol-1-yl)ethyl)benzonitrile] |
| 2950 nM | > 10000 nM | 50 nM | > 10000 nM | 4010 nM | CCS(=O)(=O)CCc1cnc(N2CCN(Cc3cncn3[C@H](C)c3ccc(F)cc3)CC2)s1 [Compound 43, (R)-2-(4-((1-(1-(4-fluoro-phenyl)ethyl)-1H-imidazol-5-yl)methyl)piperazin-1-yl)-5-(2-(ethyl-sulfonyl)ethyl) thiazole] |
| > 10000 nM | > 10000 nM | 29 nM | 5090 nM | 5840 nM | C[C@H](c1ccc(C#N)cc1)n1cncc1CN1CCN(c2ccccc2)C(C(=O)NC(C)(C)C)C1 (stereo partly drawn) [Compound 44, N-(tert-butyl)-4-((1-((R)-1-(4-cyanophenyl)ethyl)-1H-imidazol-5-yl)methyl)-1-phenylpiperazine-2-carboxamide] |
| > 10000 nM | > 10000 nM | 46 nM | > 10000 nM | > 10000 nM | C[C@H](c1ccc(C#N)cc1)n1cncc1CN1CCN(c2ccccc2)C(C(=O)N2CCOCC2)C1 (stereo partly drawn) [Compound 46, 4-((1R)-1-(5-((3-(morpholine-4-carbonyl)-4-phenylpiperazin-1-yl)methyl)-1H-imidazol-1-yl)ethyl) benzonitrile] |
| > 10000 nM | > 10000 nM | 20 nM | 9270 nM | 7830 nM | C[C@H](c1ccc(C#N)cc1)n1cncc1CN1CCN(c2ccccc2)C(C(=O)N2CCC(F)(F)CC2)C1 (stereo partly drawn) [Compound 47, 4-((1R)-1-(5-((3-(4,4-difluoropiperidine-1-carbonyl)-4-phenylpiperazin-1-yl)methyl)-1H-imidazol-1-yl)ethyl) benzonitrile] |
| 4890 nM | > 10000 nM | 31 nM | 1470 nM | 2000 nM | C[C@H](c1ccc(F)cc1)n1cncc1CN1CCN(c2ccccc2)[C@H](C(=O)N2CCCCC2)C1 [Compound 48] |
| > 10000 nM | > 10000 nM | 14 nM | 1810 nM | 2110 nM | Cc1cc(C(=O)N2CCN(Cc3cncn3[C@H](C)c3ccc(F)cc3)CC2c2ccccc2)no1 (stereo partly drawn) [Compound 49, (4-((1-((R)-1-(4-fluorophenyl)ethyl)-1H-imidazol-5-yl)methyl)-2-phenylpiperazin-1-yl)(5-methylisoxazol-3-yl)methanone] |
| > 10000 nM | > 10000 nM | 22 nM | > 10000 nM | > 10000 nM | CC(=O)N1CCN(Cc2cncn2[C@H](C)c2ccc(F)cc2)CC1c1ccccc1 (stereo partly drawn) [Compound 51, 1-(4-((1-((R)-1-(4-fluorophenyl)ethyl)-1H-imidazol-5-yl)methyl)-2-phenylpiperazin-1-yl)ethanone] |
